According to PubChem BioAssay (NCI):
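Test compounds were applied to cells in 96-well plates for 48 hours at 5 doses. GI50: concentration for 50% inhibition of growth. TGI denotes the concentration required for complete inhibition of growth.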

Tests used:
Assay in all cases: DTP human tumour cell line panel, 48 h
786-0 renal = system: 786-0 renal
A498 renal = system: A498 renal
A549 NSCLC = system: A549 NSCLC
ACHN renal = system: ACHN renal
BT-549 breast = system: BT-549 breast
CAKI-1 renal = system: CAKI-1 renal
CCRF-CEM leukemia = system: CCRF-CEM leukemia
COLO 205 colon = system: COLO 205 colon
DU-145 prostate = system: DU-145 prostate
EKVX NSCLC = system: EKVX NSCLC
HCC-2998 colon = system: HCC-2998 colon
HCT-116 colon = system: HCT-116 colon
HCT-15 colon = system: HCT-15 colon
HL-60(TB) leukemia = system: HL-60(TB) leukemia
HOP-62 NSCLC = system: HOP-62 NSCLC
HOP-92 NSCLC = system: HOP-92 NSCLC
HS 578T breast = system: HS 578T breast
HT29 colon = system: HT29 colon
IGROV1 ovarian = system: IGROV1 ovarian
K-562 leukemia = system: K-562 leukemia
KM12 colon = system: KM12 colon
LOX IMVI melanoma = system: LOX IMVI melanoma
M14 melanoma = system: M14 melanoma
MALME-3M melanoma = system: MALME-3M melanoma
MCF7 breast = system: MCF7 breast
MDA-MB-231 breast = system: MDA-MB-231 breast
MDA-MB-435 = system: MDA-MB-435
MOLT-4 leukemia = system: MOLT-4 leukemia
NCI-H226 lung = system: NCI-H226 lung
NCI-H23 lung = system: NCI-H23 lung
NCI-H460 lung = system: NCI-H460 lung
NCI-H522 lung = system: NCI-H522 lung
NCI/ADR-RES ovarian = system: NCI/ADR-RES ovarian
OVCAR-3 ovarian = system: OVCAR-3 ovarian
OVCAR-4 ovarian = system: OVCAR-4 ovarian
OVCAR-5 ovarian = system: OVCAR-5 ovarian
OVCAR-8 ovarian = system: OVCAR-8 ovarian
PC-3 prostate = system: PC-3 prostate
RPMI-8226 leukemia = system: RPMI-8226 leukemia
RXF 393 renal = system: RXF 393 renal
SF-268 CNS = system: SF-268 CNS
SF-295 CNS = system: SF-295 CNS
SF-539 CNS = system: SF-539 CNS
SK-MEL-2 melanoma = system: SK-MEL-2 melanoma
SK-MEL-28 melanoma = system: SK-MEL-28 melanoma
SK-MEL-5 melanoma = system: SK-MEL-5 melanoma
SK-OV-3 ovarian = system: SK-OV-3 ovarian
SN12C renal = system: SN12C renal
SNB-19 CNS = system: SNB-19 CNS
SNB-75 CNS = system: SNB-75 CNS
SW-620 colon = system: SW-620 colon
T-47D breast = system: T-47D breast
TK-10 renal = system: TK-10 renal
U251 CNS = system: U251 CNS
UACC-257 melanoma = system: UACC-257 melanoma
UACC-62 melanoma = system: UACC-62 melanoma
UO-31 renal = system: UO-31 renal

## Cc1nn(-c2ccccc2)c(-n2ccnc2)c1/C=N/Nc1nc(-c2ccc(Cl)c(Cl)c2)cs1
786-0 renal
  GI50: 3.21 µM
  TGI: 13.3 µM
A498 renal
  GI50: 7.98 µM
  TGI: 35.9 µM
A549 NSCLC
  GI50: 2.72 µM
  TGI: 10 µM
ACHN renal
  GI50: 3.97 µM
  TGI: 16.9 µM
BT-549 breast
  GI50: 5.88 µM
  TGI: 45 µM
CAKI-1 renal
  GI50: 5.55 µM
  TGI: 20 µM
CCRF-CEM leukemia
  GI50: 3.96 µM
  TGI: > 100 µM
COLO 205 colon
  GI50: 4.46 µM
  TGI: > 100 µM
DU-145 prostate
  GI50: 3.15 µM
  TGI: 13.3 µM
EKVX NSCLC
  GI50: 5.7 µM
  TGI: 36.5 µM
HCC-2998 colon
  GI50: 5.1 µM
  TGI: 46.8 µM
HCT-116 colon
  GI50: 1.9 µM
  TGI: 4.75 µM
HCT-15 colon
  GI50: 4.09 µM
  TGI: > 100 µM
HL-60(TB) leukemia
  GI50: 6.91 µM
  TGI: > 100 µM
HOP-62 NSCLC
  GI50: 5.92 µM
  TGI: 29.7 µM
HOP-92 NSCLC
  GI50: 0.214 µM
  TGI: 3.49 µM
HS 578T breast
  GI50: 2.95 µM
  TGI: 28.9 µM
HT29 colon
  GI50: 4.99 µM
  TGI: > 100 µM
IGROV1 ovarian
  GI50: 6.07 µM
  TGI: 26.2 µM
K-562 leukemia
  GI50: 2.49 µM
  TGI: > 100 µM
KM12 colon
  GI50: 7.89 µM
  TGI: > 100 µM
LOX IMVI melanoma
  GI50: 3.01 µM
  TGI: 13.4 µM
M14 melanoma
  GI50: 4.11 µM
  TGI: 30.6 µM
MALME-3M melanoma
  GI50: 1.95 µM
  TGI: 9.21 µM
MCF7 breast
  GI50: 2.17 µM
  TGI: 6.37 µM
MDA-MB-231 breast
  GI50: 2.49 µM
  TGI: 11.2 µM
MDA-MB-435
  GI50: 84.7 µM
  TGI: > 100 µM
MOLT-4 leukemia
  GI50: 7.33 µM
  TGI: > 100 µM
NCI-H226 lung
  GI50: 1.91 µM
  TGI: 10.8 µM
NCI-H23 lung
  GI50: 1.94 µM
  TGI: 9.9 µM
NCI-H460 lung
  GI50: 3.04 µM
  TGI: 10.7 µM
NCI-H522 lung
  GI50: 13.4 µM
  TGI: 68.1 µM
NCI/ADR-RES ovarian
  GI50: 2.31 µM
  TGI: 9.02 µM
OVCAR-3 ovarian
  GI50: 1.68 µM
  TGI: 3.44 µM
OVCAR-4 ovarian
  GI50: 1.48 µM
  TGI: 3.76 µM
OVCAR-5 ovarian
  GI50: 14.9 µM
  TGI: 57.6 µM
OVCAR-8 ovarian
  GI50: 3.44 µM
  TGI: 22.3 µM
PC-3 prostate
  GI50: 3.02 µM
  TGI: 18.7 µM
RPMI-8226 leukemia
  GI50: 0.65 µM
  TGI: 8.83 µM
RXF 393 renal
  GI50: 2.29 µM
  TGI: 6.12 µM
SF-268 CNS
  GI50: 9.37 µM
  TGI: 37.5 µM
SF-295 CNS
  GI50: 5.21 µM
  TGI: 20.3 µM
SF-539 CNS
  GI50: 3.66 µM
  TGI: 14.2 µM
SK-MEL-2 melanoma
  GI50: 17.5 µM
  TGI: 50.8 µM
SK-MEL-28 melanoma
  GI50: 3.89 µM
  TGI: 19.7 µM
SK-MEL-5 melanoma
  GI50: 2.54 µM
  TGI: 12.9 µM
SK-OV-3 ovarian
  GI50: 23.5 µM
  TGI: 69.4 µM
SN12C renal
  GI50: 4.2 µM
  TGI: 20.1 µM
SNB-19 CNS
  GI50: 16.2 µM
  TGI: 92.3 µM
SNB-75 CNS
  GI50: 1.66 µM
  TGI: 5.35 µM
SW-620 colon
  GI50: 3.36 µM
  TGI: 53.4 µM
T-47D breast
  GI50: 6.65 µM
  TGI: > 100 µM
TK-10 renal
  GI50: 20.3 µM
  TGI: 63.2 µM
U251 CNS
  GI50: 4.28 µM
  TGI: 20.7 µM
UACC-257 melanoma
  GI50: 17.7 µM
  TGI: 85.3 µM
UACC-62 melanoma
  GI50: 7.6 µM
  TGI: 31.9 µM
UO-31 renal
  GI50: 2.3 µM
  TGI: 21.8 µM

## O=C1c2[nH]cc(CN3CCN(CCO)CC3)c2C(=O)c2c1c(O)c1ccccc1c2O
786-0 renal
  GI50: 2.65 µM
  TGI: 11 µM
A498 renal
  GI50: 13.2 µM
  TGI: 27.8 µM
A549 NSCLC
  GI50: 7.15 µM
  TGI: 24.4 µM
ACHN renal
  GI50: 5.38 µM
  TGI: 23.3 µM
BT-549 breast
  GI50: 13.8 µM
  TGI: 28.6 µM
CAKI-1 renal
  GI50: 5.45 µM
  TGI: 14.2 µM
CCRF-CEM leukemia
  GI50: 1.63 µM
COLO 205 colon
  GI50: 16.4 µM
  TGI: 47.4 µM
DU-145 prostate
  GI50: 4.53 µM
  TGI: 18.2 µM
EKVX NSCLC
  GI50: 8.14 µM
  TGI: 22.5 µM
HCC-2998 colon
  GI50: 6.51 µM
  TGI: 21.1 µM
HCT-116 colon
  GI50: 1.76 µM
  TGI: 5.47 µM
HCT-15 colon
  GI50: 2.87 µM
  TGI: 18.6 µM
HL-60(TB) leukemia
  GI50: 2.83 µM
  TGI: 48.9 µM
HOP-62 NSCLC
  GI50: 1.92 µM
  TGI: 15 µM
HOP-92 NSCLC
  GI50: 1.14 µM
  TGI: 9.56 µM
HS 578T breast
  GI50: 8.14 µM
  TGI: 24.4 µM
HT29 colon
  GI50: 12.3 µM
  TGI: 31.6 µM
IGROV1 ovarian
  GI50: 1.61 µM
  TGI: 15.1 µM
K-562 leukemia
  GI50: 2.17 µM
  TGI: > 100 µM
KM12 colon
  GI50: 1.62 µM
  TGI: 3.91 µM
LOX IMVI melanoma
  GI50: 1.95 µM
  TGI: 6.34 µM
M14 melanoma
  GI50: 1.69 µM
  TGI: 3.86 µM
MALME-3M melanoma
  GI50: 7.69 µM
  TGI: 24.9 µM
MCF7 breast
  GI50: 5.63 µM
  TGI: 21.9 µM
MDA-MB-231 breast
  GI50: 4.89 µM
  TGI: 16.3 µM
MDA-MB-435
  GI50: 1.84 µM
  TGI: 4.14 µM
MOLT-4 leukemia
  GI50: 1.38 µM
  TGI: 9.48 µM
NCI-H226 lung
  GI50: 10.5 µM
  TGI: 28.4 µM
NCI-H23 lung
  GI50: 14.9 µM
  TGI: 39.4 µM
NCI-H460 lung
  GI50: 2.69 µM
  TGI: 12.3 µM
NCI-H522 lung
  GI50: 2.08 µM
  TGI: 9.05 µM
NCI/ADR-RES ovarian
  GI50: 9.64 µM
  TGI: 28.3 µM
OVCAR-3 ovarian
  GI50: 4 µM
  TGI: 16.3 µM
OVCAR-4 ovarian
  GI50: 13.3 µM
  TGI: 29.4 µM
OVCAR-5 ovarian
  GI50: 16.5 µM
  TGI: 33 µM
OVCAR-8 ovarian
  GI50: 5.52 µM
  TGI: 17.7 µM
PC-3 prostate
  GI50: 2.7 µM
  TGI: 8.78 µM
RPMI-8226 leukemia
  GI50: 1.52 µM
  TGI: 4.16 µM
RXF 393 renal
  GI50: 6.03 µM
  TGI: 22.9 µM
SF-268 CNS
  GI50: 5.9 µM
  TGI: 24.2 µM
SF-295 CNS
  GI50: 2.56 µM
  TGI: 10.9 µM
SF-539 CNS
  GI50: 1.52 µM
  TGI: 3.11 µM
SK-MEL-2 melanoma
  GI50: 2.77 µM
  TGI: 8.06 µM
SK-MEL-28 melanoma
  GI50: 13.6 µM
  TGI: 28.7 µM
SK-MEL-5 melanoma
  GI50: 1.12 µM
  TGI: 3.27 µM
SK-OV-3 ovarian
  GI50: 18.7 µM
  TGI: 37.5 µM
SN12C renal
  GI50: 2.18 µM
  TGI: 9.92 µM
SNB-19 CNS
  GI50: 14.8 µM
  TGI: 32.5 µM
SNB-75 CNS
  GI50: 14.2 µM
  TGI: 32.8 µM
SW-620 colon
  GI50: 1.68 µM
  TGI: 3.48 µM
T-47D breast
  GI50: 19.2 µM
  TGI: 38.6 µM
TK-10 renal
  GI50: 0.36 µM
  TGI: 6.78 µM
U251 CNS
  GI50: 5.31 µM
  TGI: 25.9 µM
UACC-257 melanoma
  GI50: 8.33 µM
  TGI: 25.2 µM
UACC-62 melanoma
  GI50: 4.53 µM
  TGI: 9.01 µM
UO-31 renal
  GI50: 3.82 µM
  TGI: 18.8 µM
